# Assays:
# Bcl-xL = Bcl-xL (Homo sapiens, UniProt Q07817); assay: Bcl-xL binding affinity analysis (fluorescence polarization binding assay); details: read-out: BcI-XI (Ki, Bcl-xL binding affinity)
# Source text: (§1) Bcl-2 and Bcl-xL binding may be determined using a variety of known methods. One such assay is a sensitive and quantitative in vitro binding assay using fluorescence polarization (FP) described by Wang, J.-L.; Zhang, Z-J.; Choksi, S.; Sjam. S.; Lu, Z.; Croce, C. M.; Alnemri, E. S.; Komgold, R.; Huang, Z. Cell permeable Bcl-2 binding peptides: a chemical approach to apoptosis induction in tumor cells. Cancer Res. 2000, 60, 1498-1502).
# (§2) Bcl-2 and Bcl-xL binding affinity analysis data is presented below for various compounds of the invention.
# Bcl-2 = Bcl-2 (Homo sapiens, UniProt P10415); assay: Bcl-2 binding affinity analysis (fluorescence polarization binding assay); details: read-out: BcI2 (Ki, Bcl-2 binding affinity)
# Source text: as §1, §2
# Sequence of Bcl-2 (P10415 whole entry): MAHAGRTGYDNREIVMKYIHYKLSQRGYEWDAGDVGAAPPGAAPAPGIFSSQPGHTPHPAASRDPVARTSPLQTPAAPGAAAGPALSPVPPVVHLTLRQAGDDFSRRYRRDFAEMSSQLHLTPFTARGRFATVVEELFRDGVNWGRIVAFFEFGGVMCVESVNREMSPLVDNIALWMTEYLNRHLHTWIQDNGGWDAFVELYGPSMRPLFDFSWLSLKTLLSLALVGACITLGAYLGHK
# Sequence of Bcl-xL (Q07817 whole entry): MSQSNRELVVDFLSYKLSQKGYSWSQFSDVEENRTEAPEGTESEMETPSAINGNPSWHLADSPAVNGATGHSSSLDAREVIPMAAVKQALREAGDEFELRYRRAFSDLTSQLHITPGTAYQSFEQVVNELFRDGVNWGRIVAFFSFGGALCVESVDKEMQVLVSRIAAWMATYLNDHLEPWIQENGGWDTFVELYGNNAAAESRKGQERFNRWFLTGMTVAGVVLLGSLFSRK
Structure (SMILES),Ki (Bcl-xL) [µM],Ki (Bcl-2) [µM]
C[C@@H]1[C@@H](NC(=O)[C@@H]2[C@H]([C@H](C)O)[C@H](CN)ON2Cc2cccc(-c3cc(C(=O)N[C@@H](Cc4ccccc4)CN(C)C)cc(N(C)C)c3)c2F)C[C@H]2C[C@@H]1C2(C)C [Compound 38],> 10,< 0.001
C[C@@H]1[C@@H](NC(=O)[C@@H]2[C@H]([C@H](C)O)[C@H](CN)ON2Cc2cccc(-c3cc(C(=O)NCCN(C)C)cc(N(C)C)c3)c2F)C[C@H]2C[C@@H]1C2(C)C [Compound 53],> 10,0.001 to 0.005
COc1c(CN2O[C@@H](CN)[C@@H]([C@H](C)O)[C@H]2C(=O)N[C@H]2C[C@H]3C[C@@H]([C@@H]2C)C3(C)C)cccc1-c1cc(C(=O)N[C@@H](Cc2ccccc2)CN(C)C)cc(N(C)C)c1 [Compound 54],> 10,0.001 to 0.005
COc1c(CN2O[C@@H](CN)[C@@H]([C@H](C)O)[C@H]2C(=O)N[C@H]2C[C@H]3C[C@@H]([C@@H]2C)C3(C)C)cccc1-c1cc(C(=O)NCCc2ccccc2)cc(N(C)C)c1 [Compound 62],5 to 10,< 0.001
COc1c(CN2O[C@@H](CN)[C@@H]([C@H](C)O)[C@H]2C(=O)N[C@H]2C[C@H]3C[C@@H]([C@@H]2C)C3(C)C)cccc1-c1cc(C(=O)NCCN(C)C)cc(N(C)C)c1 [Compound 63],5 to 10,< 0.001
COc1c(CN2O[C@@H](CN)[C@@H]([C@H](C)O)[C@H]2C(=O)N[C@H]2C[C@H]3C[C@@H]([C@@H]2C)C3(C)C)cccc1-c1cc(C(=O)NCCc2ccccn2)cc(N(C)C)c1 [Compound 64],> 10,< 0.001
COC(=O)[C@H](Cc1ccccc1)NC(=O)c1cc(-c2cccc(CN3O[C@@H](CN)[C@@H]([C@H](C)O)[C@H]3C(=O)N[C@H]3C[C@H]4C[C@@H]([C@@H]3C)C4(C)C)c2OC)cc(N(C)C)c1 [Compound 65],> 10,< 0.001
COc1c(CN2O[C@@H](CN)[C@@H]([C@H](C)O)[C@H]2C(=O)N[C@H]2C[C@H]3C[C@@H]([C@@H]2C)C3(C)C)cccc1-c1cc(C(=O)N(C)OC)cc(N(C)C)c1 [Compound 66],5 to 10,< 0.001
COc1c(CN2O[C@@H](CN)[C@@H]([C@H](C)O)[C@H]2C(=O)N[C@H]2C[C@H]3C[C@@H]([C@@H]2C)C3(C)C)cccc1-c1cc(C(=O)N[C@@H](Cc2cscn2)C(=O)N(C)C)cc(N(C)C)c1 [Compound 67],5 to 10,< 0.001
COc1c(CN2O[C@@H](CN)[C@@H]([C@H](C)O)[C@H]2C(=O)N[C@H]2C[C@H]3C[C@@H]([C@@H]2C)C3(C)C)cccc1-c1cc(C(=O)N(C)C)cc(N(C)C)c1 [Compound 69],> 10,0.005 to 0.009
CNC(=O)c1cc(-c2cccc(CN3O[C@@H](CN)[C@@H]([C@H](C)O)[C@H]3C(=O)N[C@H]3C[C@H]4C[C@@H]([C@@H]3C)C4(C)C)c2OC)cc(N(C)C)c1 [Compound 70],> 10,0.001 to 0.005

# The next lines start with the values.
Ki (Bcl-xL) [µM],Ki (Bcl-2) [µM],Structure (SMILES)
< 1,< 0.001,COc1c(CN2O[C@@H](CO)[C@@H]([C@H](C)O)[C@H]2C(=O)N[C@H]2C[C@H]3C[C@@H]([C@@H]2C)C3(C)C)cccc1-c1cc(CN)cc(C(=O)N[C@@H](Cc2ccccc2)CN(C)C)c1 [295 amine]
< 1,< 0.001,COc1c(CN2O[C@@H](CO)[C@@H]([C@H](C)O)[C@H]2C(=O)N[C@H]2C[C@H]3C[C@@H]([C@@H]2C)C3(C)C)cccc1-c1cc(C(=O)N[C@H](CN(C)C)CC(C)(C)C)cc(N(C)C)c1 [Compound 1]
5 to 10,0.005 to 0.009,COC[C@@H](Cc1ccccc1)NC(=O)c1cc(-c2cccc(CN3O[C@@H](CO)[C@@H]([C@H](C)O)[C@H]3C(=O)N[C@H]3C[C@H]4C[C@@H]([C@@H]3C)C4(C)C)c2OC)cc(N(C)C)c1 [Compound 12]
< 1,< 0.001,CCOc1c(CN2O[C@@H](CO)[C@@H]([C@H](C)O)[C@H]2C(=O)N[C@H]2C[C@H]3C[C@@H]([C@@H]2C)C3(C)C)cccc1-c1cc(C(=O)N[C@@H](Cc2ccccc2)CN(C)C)cc(N(C)C)c1 [Compound 15]
< 1,< 0.001,CCOc1c(CN2O[C@@H](CO)[C@@H]([C@H](C)O)[C@H]2C(=O)N[C@H]2C[C@H]3C[C@@H]([C@@H]2C)C3(C)C)cccc1-c1cc(C(=O)N[C@H](Cc2ccccc2)CN(C)C)cc(N(C)C)c1 [Compound 23]
< 1,< 0.001,CCOc1c(CN2O[C@@H](CO)[C@@H]([C@H](C)O)[C@H]2C(=O)N[C@H]2C[C@H]3C[C@@H]([C@@H]2C)C3(C)C)cccc1-c1cc(C(=O)N[C@H](CN(C)C)CC(C)(C)C)cc(N(C)C)c1 [Compound 24]
< 1,< 0.001,CCOc1c(CN2O[C@@H](CO)[C@@H]([C@H](C)O)[C@H]2C(=O)N[C@H]2C[C@H]3C[C@@H]([C@@H]2C)C3(C)C)cccc1-c1cc(C(=O)N[C@@H](Cc2cccs2)CN(C)C)cc(N(C)C)c1 [Compound 25]
< 1,< 0.001,C[C@@H]1[C@@H](NC(=O)[C@@H]2[C@H]([C@H](C)O)[C@H](CO)ON2Cc2cccc(-c3cc(C(=O)N[C@@H](Cc4ccccc4)CN(C)C)cc(N(C)C)c3)c2OCC2CC2)C[C@H]2C[C@@H]1C2(C)C [Compound 26]
< 1,< 0.001,C[C@@H]1[C@@H](NC(=O)[C@@H]2[C@H]([C@H](C)O)[C@H](CO)ON2Cc2cccc(-c3cc(C(=O)N[C@H](CN(C)C)CC(C)(C)C)cc(N(C)C)c3)c2OCC2CC2)C[C@H]2C[C@@H]1C2(C)C [Compound 33]
< 1,< 0.001,CC(C)C[C@H](CN(C)C)NC(=O)c1cc(-c2cccc(CN3O[C@@H](CO)[C@@H]([C@H](C)O)[C@H]3C(=O)N[C@H]3C[C@H]4C[C@@H]([C@@H]3C)C4(C)C)c2OCC2CC2)cc(N(C)C)c1 [Compound 34]
< 1,< 0.001,CCOc1c(CN2O[C@@H](CO)[C@@H]([C@H](C)O)[C@H]2C(=O)N[C@H]2C[C@H]3C[C@@H]([C@@H]2C)C3(C)C)cccc1-c1cc(C(=O)N[C@@H](CC(C)C)CN(C)C)cc(N(C)C)c1 [Compound 35]
< 1,< 0.001,COc1c(CN2O[C@@H](CO)[C@@H]([C@H](C)O)[C@H]2C(=O)N[C@H]2C[C@H]3C[C@@H]([C@@H]2C)C3(C)C)cccc1-c1cc(C(=O)N[C@@H](Cc2ccccc2)CN(C)C)cc(N(C)C)c1 [Compound 37]
1 to 5,< 0.001,CCN1CCC[C@@H]1CNC(=O)c1cc(-c2cccc(CN3O[C@@H](CN)[C@@H]([C@H](C)O)[C@H]3C(=O)N[C@H]3C[C@H]4C[C@@H]([C@@H]3C)C4(C)C)c2OC)cc(N(C)C)c1 [Compound 60]
< 1,< 0.001,COc1c(CN2O[C@@H](CN)[C@@H]([C@H](C)O)[C@H]2C(=O)N[C@H]2C[C@H]3C[C@@H]([C@@H]2C)C3(C)C)cccc1-c1cc(C(=O)N[C@H](CN(C)C)CC(C)(C)C)cc(N(C)C)c1 [Compound 61]
< 1,< 0.001,COc1c(CN2O[C@@H](CN)[C@@H]([C@H](C)O)[C@H]2C(=O)N[C@H]2C[C@H]3C[C@@H]([C@@H]2C)C3(C)C)cccc1-c1cc(C(=O)N[C@H](CC(C)C)CN(C)C)cc(N(C)C)c1 [Compound 68]
1 to 5,> 0.009,COc1c(CN2O[C@@H](CN)[C@@H]([C@H](C)O)[C@H]2C(=O)N[C@H]2C[C@H]3C[C@@H]([C@@H]2C)C3(C)C)cccc1-c1cc(C(=O)O)cc(N(C)C)c1 [Compound 71]

# Source: patent publication US8178690B2, “Compounds and methods for inhibiting the interaction of BCL proteins with binding partners” (Infinity Pharmaceuticals, Inc., priority 2006, dated 2012)
